According to the supplement of paper PMC5908809:

Experiments:
NK-92 (IL-2 2.5 ng/mL) [1] = assay: drug sensitivity score (DSS) (DSS units); higher = more sensitive; extreme values may be limits of the assay; conditions: 72 h
YT (IL-2 2.5 ng/mL) [2] = assay: as above; conditions: 72 h
[3] = tested on: normal primary NK cells, pool 1 (3 donors), resting (IL-2 0 ng/mL); assay: as above; conditions: 72 h
SNK-6 (IL-2 2.5 ng/mL) [4] = assay: as above; conditions: 72 h
NK-YS (IL-2 2.5 ng/mL) [5] = assay: as above; conditions: 72 h
[6] = tested on: normal primary NK cells, pool 1 (3 donors) (IL-2 2.5 ng/mL); assay: as above; conditions: 72 h
KAI3 (IL-2 2.5 ng/mL) [7] = assay: as above; conditions: 72 h
KHYG-1 (IL-2 2.5 ng/mL) [8] = assay: as above; conditions: 72 h
IMC-1 (IL-2 20 ng/mL) [9] = assay: as above; conditions: 72 h
[10] = tested on: normal primary NK cells, pool 3 (3 donors) (IL-2 2.5 ng/mL); assay: as above; conditions: 72 h
[11] = tested on: normal primary NK cells, pool 2 (3 donors) (IL-2 2.5 ng/mL); assay: as above; conditions: 72 h
DERL-7 (IL-2 2.5 ng/mL) [12] = assay: as above; conditions: 72 h
NKL (IL-2 2.5 ng/mL) [13] = assay: as above; conditions: 72 h
NK-92 (IL-2 2.5 ng/mL) [14] = assay: percent inhibition of viability; higher = more inhibition; conditions: 72 h
YT (IL-2 2.5 ng/mL) [15] = assay: as above; conditions: 72 h
[16] = tested on: normal primary NK cells, pool 1 (3 donors), resting (IL-2 0 ng/mL); assay: as above; conditions: 72 h
SNK-6 (IL-2 2.5 ng/mL) [17] = assay: as above; conditions: 72 h
NK-YS (IL-2 2.5 ng/mL) [18] = assay: as above; conditions: 72 h
[19] = tested on: normal primary NK cells, pool 1 (3 donors) (IL-2 2.5 ng/mL); assay: as above; conditions: 72 h
KAI3 (IL-2 2.5 ng/mL) [20] = assay: as above; conditions: 72 h
KHYG-1 (IL-2 2.5 ng/mL) [21] = assay: as above; conditions: 72 h
IMC-1 (IL-2 20 ng/mL) [22] = assay: as above; conditions: 72 h
[23] = tested on: normal primary NK cells, pool 3 (3 donors) (IL-2 2.5 ng/mL); assay: as above; conditions: 72 h
[24] = tested on: normal primary NK cells, pool 2 (3 donors) (IL-2 2.5 ng/mL); assay: as above; conditions: 72 h
DERL-7 (IL-2 2.5 ng/mL) [25] = assay: as above; conditions: 72 h
NKL (IL-2 2.5 ng/mL) [26] = assay: as above; conditions: 72 h
[27] = tested on: normal NK cells expanded with K562-aAPC; assay: as above; conditions: 72 h, IL-2 2.5 ng/mL
Protocol: (§1)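 Drug sensitivity and resistance testing on K562-aAPC-expanded normal NK cells: 5 concentrations (10-fold steps over a 10,000-fold range), 72 h at 37 °C, viability by CellTiter-Glo normalised to DMSO and benzethonium chloride controls; DSS from the fitted curve.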

[28] = tested on: normal NK cells expanded with K562-aAPC; assay: drug sensitivity score (DSS) (DSS units); higher = more sensitive; extreme values may be limits of the assay; conditions: 72 h; IL-2 2.5 ng/mL
Protocol: as §1

CN1CCc2c(c3ccccc3n2Cc2ccc(C(=O)NO)cc2)C1 [Tubastatin A] (max concentration tested 10000 nM)
Conditions | drug sensitivity score
DERL-7 (IL-2 2.5 ng/mL) [12] | 3.03
IMC-1 (IL-2 20 ng/mL) [9] | 4.57
KAI3 (IL-2 2.5 ng/mL) [7] | 9.51
KHYG-1 (IL-2 2.5 ng/mL) [8] | 4.58
NK-92 (IL-2 2.5 ng/mL) [1] | 8.57
NK-YS (IL-2 2.5 ng/mL) [5] | 4.55
NKL (IL-2 2.5 ng/mL) [13] | 8.2
SNK-6 (IL-2 2.5 ng/mL) [4] | 5.42
YT (IL-2 2.5 ng/mL) [2] | 5.09
[3] | 7.58
[6] | 5.39
[10] | 1.21
[11] | 3.66
[28] | 4.5

percent inhibition of viability [%]
Conditions | 1 nM | 10 nM | 100 nM | 1000 nM | 10000 nM
DERL-7 (IL-2 2.5 ng/mL) [25] | -3.55 | 1.06 | -2.9 | -2.52 | 60
IMC-1 (IL-2 20 ng/mL) [22] | -3.32 | -4.63 | -0.4 | -1.55 | 84.5
KAI3 (IL-2 2.5 ng/mL) [20] | 2.16 | -0.84 | 7.18 | 38.8 | 90.5
KHYG-1 (IL-2 2.5 ng/mL) [21] | -2.63 | -7.38 | -2.24 | 5.2 | 68.8
NK-92 (IL-2 2.5 ng/mL) [14] | -3.57 | -14.2 | -5.66 | 22.2 | 92.4
NK-YS (IL-2 2.5 ng/mL) [18] | -4.34 | -5.38 | -3.76 | 9.99 | 54.1
NKL (IL-2 2.5 ng/mL) [26] | -6.98 | -8.33 | 6.76 | 35.4 | 74.1
SNK-6 (IL-2 2.5 ng/mL) [17] | 8.54 | 0.91 | 4.89 | 18.5 | 57
YT (IL-2 2.5 ng/mL) [15] | -0.87 | -2.95 | -0.96 | 6.63 | 72.9
[16] | 8.81 | 19.6 | 12 | 26.2 | 81.9
[19] | 7.05 | 12.2 | 16.9 | 13 | 63.5
[23] | -0.16 | 11.4 | -0.85 | -0.8 | 29.6
[24] | -2.86 | 0.66 | 3.2 | 7.48 | 46.4
[27] | -5.45 | -1.84 | -1.29 | 9.86 | 53.5

O=C(Nc1c[nH]nc1-c1nc2ccc(CN3CCOCC3)cc2[nH]1)NC1CC1 [AT9283] (max concentration tested 1000 nM)
Conditions | drug sensitivity score
DERL-7 (IL-2 2.5 ng/mL) [12] | 16
IMC-1 (IL-2 20 ng/mL) [9] | 13.1
KAI3 (IL-2 2.5 ng/mL) [7] | 9.99
KHYG-1 (IL-2 2.5 ng/mL) [8] | 15.2
NK-92 (IL-2 2.5 ng/mL) [1] | 9.6
NK-YS (IL-2 2.5 ng/mL) [5] | 10.4
NKL (IL-2 2.5 ng/mL) [13] | 8.19
SNK-6 (IL-2 2.5 ng/mL) [4] | 15.5
YT (IL-2 2.5 ng/mL) [2] | 4.99
[3] | 0
[6] | 0.59
[10] | 0
[11] | 0
[28] | 11.1

percent inhibition of viability [%]
Conditions | 0.1 nM | 1 nM | 10 nM | 100 nM | 1000 nM
DERL-7 (IL-2 2.5 ng/mL) [25] | 0.91 | 0.04 | 7.11 | 81.9 | 98.3
IMC-1 (IL-2 20 ng/mL) [22] | -3.86 | -1.55 | -6.66 | 65.3 | 100
KAI3 (IL-2 2.5 ng/mL) [20] | -1.1 | -5.66 | 8.51 | 45.9 | 76.8
KHYG-1 (IL-2 2.5 ng/mL) [21] | 0.97 | -2.56 | 0.97 | 83.4 | 96
NK-92 (IL-2 2.5 ng/mL) [14] | 3.17 | 8.69 | 0.17 | 50.1 | 67.7
NK-YS (IL-2 2.5 ng/mL) [18] | -4.25 | -5.41 | -2.2 | 57.1 | 62.4
NKL (IL-2 2.5 ng/mL) [26] | -4.9 | -5.16 | -3.64 | 38.5 | 64.4
SNK-6 (IL-2 2.5 ng/mL) [17] | 13.2 | 8.33 | 13.9 | 73.1 | 96.5
YT (IL-2 2.5 ng/mL) [15] | 0.76 | -0.55 | 3.44 | 18.3 | 51.5
[16] | -10.1 | -11 | -42.4 | -105 | -157
[19] | -12.6 | -14 | -13.3 | 12.2 | 12.7
[23] | -15.9 | -12.2 | -13.3 | -0.35 | 9.39
[24] | -12.3 | -10.8 | -12.5 | 0.3 | 9.78
[27] | 0.7 | -5.39 | 3.23 | 57.8 | 65.9

CO[C@H]1/C=C\C=C(/C)C(=O)NC2=CC(=O)C(NCCN(C)C)=C(C[C@@H](C)C[C@H](OC)[C@H](O)[C@@H](C)/C=C(\C)[C@@H]1OC(N)=O)C2=O [Alvespimycin] (max concentration tested 1000 nM)
Conditions | drug sensitivity score
DERL-7 (IL-2 2.5 ng/mL) [12] | 15.1
IMC-1 (IL-2 20 ng/mL) [9] | 8.22
KAI3 (IL-2 2.5 ng/mL) [7] | 15.7
KHYG-1 (IL-2 2.5 ng/mL) [8] | 12.2
NK-92 (IL-2 2.5 ng/mL) [1] | 13.3
NK-YS (IL-2 2.5 ng/mL) [5] | 19.2
NKL (IL-2 2.5 ng/mL) [13] | 16.4
SNK-6 (IL-2 2.5 ng/mL) [4] | 19.9
YT (IL-2 2.5 ng/mL) [2] | 9.86
[3] | 7.28
[6] | 15.5
[10] | 10.3
[11] | 14.8
[28] | 13.3

percent inhibition of viability [%]
Conditions | 0.1 nM | 1 nM | 10 nM | 100 nM | 1000 nM
DERL-7 (IL-2 2.5 ng/mL) [25] | -2.47 | -2.74 | 9.85 | 73.2 | 101
IMC-1 (IL-2 20 ng/mL) [22] | -5.23 | 4.85 | 1.66 | 16.1 | 101
KAI3 (IL-2 2.5 ng/mL) [20] | 3.95 | 3.1 | 8.75 | 78.1 | 104
KHYG-1 (IL-2 2.5 ng/mL) [21] | -3.99 | 2.16 | 2.52 | 55.2 | 107
NK-92 (IL-2 2.5 ng/mL) [14] | -5.39 | 0.79 | 7.9 | 62.4 | 105
NK-YS (IL-2 2.5 ng/mL) [18] | -5 | 5.02 | 9.34 | 96.8 | 105
NKL (IL-2 2.5 ng/mL) [26] | -9.27 | 5.22 | 1.11 | 89.3 | 90.7
SNK-6 (IL-2 2.5 ng/mL) [17] | 11.2 | 9.82 | 13.6 | 97.6 | 91.2
YT (IL-2 2.5 ng/mL) [15] | -0.99 | 6.65 | 4.58 | 35.5 | 97
[16] | 9.61 | -5.61 | 24.6 | 26.1 | 42
[19] | 9.22 | -0.64 | 16.4 | 73 | 87
[23] | -14.3 | -9.11 | 6.58 | 46.3 | 85.2
[24] | -14.3 | -3.64 | 14.4 | 68.9 | 82.6
[27] | -6.1 | -4.9 | -1.57 | 67.3 | 100
